Test results as given in patent US20260256778A1 (AbbVie Inc., priority 2023, published 2026).
≈ marks a conversion by molar mass, not a printed value. Read-outs that look alike come from different tables or passages of the source.

Tests used:
[1] = system: inflammatory chemotactic proteins (CXCL9 and 10) and T-cell activation markers (IL12B and TNFSF9); assay: Serum type 1 inflammation biomarkers in the Phase 2 study; assay type: in vivo, human
Description: (§1) No differences were apparent for active vs. stable subjects.

CXCL10 = assay: Serum CXCL10 level in the Phase 2 study; assay type: in vivo, human; details: by week 2, all dose groups
Description: as §1

facial vitiligo area = assay: 3D digital imaging substudy of facial vitiligo area (Example 3); assay type: in vivo, human; set-up: F-VASI, Wk 24: scale not given here; details: for percent reduction of facial vitiligo area from Baseline by 3D imaging / Treatment effect size, Cohen's d of 3D Imaging / Treatment effect size, Cohen's d of F-VASI: Week 24
Description: Specifically, multiple stereoscopic images were captured by a proprietary optical 3D scanner for a subset of patients in the referenced study. The data acquisition procedure and determination of vitiligo area using the 3D platform were as follows: • 1. Subject was scanned, acquiring 2D raw color images with real time feedback to generate 3D gray low-resolution model • 2. Full resolution color model generated and uploaded to cloud • 3. Web application opened by investigator, who manually selected threshold for each region of face. • 4. The detected vitiligo area was measured and results reported
To accomplish these objectives, twenty-seven subjects were enrolled into the 3D imaging substudy across 6 clinical sites. Twenty-one subjects had high quality 3D images available at Week 24 for analysis. Subjects who enrolled in the 3D digital imaging substudy were randomized as per the main protocol. The demographics, including Fitzpatrick skin types, and baseline disease characteristics in the 3D imaging substudy are provided in Table 9. With reference to Table 9, the demographics were in general consistent with the overall study population.
The quality and completeness of each scan was assessed by a visual inspection of the resulting 3D image by the technician and/or investigator, utilizing Wood's lamp visualization to set a threshold at Baseline, defined as the intensity value used to distinguish which 3D pixels within the image belong to the vitiligo area or to the normal skin area. The threshold value determined by the investigator at Baseline remained constant and applied to all post-baseline 3D images during the treatment period to reflect changes in the pigmentation. Each 3D image included 10 predefined anatomic regions of the face: forehead, left eye, right eye, left lateral cheek/temple, left middle cheek, nose, right middle cheek, right lateral cheek/temple, upper lip, and chin. Results are presented as the sum of vitiligo area measurement (cm^2) across all anatomic regions of the face.

[2] = Solubility of upadacitinib in different aqueous media at 37° C.; assay type: physicochemical
[3] = system: non-segmental vitiligo (NSV); details: for Percent CFB in F-VASI; LSMEAN (SE): Week 24, MMRM; for F-VASI 75; (%): Week 24, NRI
[4] = 22 mg QD, one representative subject, Baseline to Week 24
[5] = Placebo (N = 3) vs 6 mg (N = 7)
[6] = Placebo (N = 3) vs 11 mg (N = 6)
[7] = Placebo (N = 3) vs 22 mg (N = 5)
[8] = 6 mg QD, Week 24, change from baseline, 44 patients
[9] = 11 mg QD, Week 24, change from baseline, 45 patients
[10] = 22 mg QD, Week 24, change from baseline, 34 patients

CC[C@@H]1CN(C(=O)NCC(F)(F)F)C[C@@H]1c1cnc2cnc3[nH]ccc3n12 [Upadacitinib, (3S,4R)-3-ethyl-4-(3H-imidazo[1,2-a]pyrrolo[2,3-e]pyrazin-8-yl)-N-(2,2,2-trifluoroethyl) pyrrolidine-1-carboxamide]
Inhibition of type 1 inflammation biomarkers ([1]; 11 mg dose): maximal inhibition was achieved | Change from baseline in CXCL9, CXCL10, IL12B and TNFSF9 ([1]; all upadacitinib doses, from week 2 through week 24, data not shown): Reductions from baseline were observed | CXCL10 levels (CXCL10): reduced to those in healthy volunteers | % Change Facial Vitiligo Area by 3D Imaging at Week 24, Mean (facial vitiligo area; 6 mg QD, N 7): −15.20% | % Change Facial Vitiligo Area by 3D Imaging at Week 24, Median (facial vitiligo area; 6 mg QD, N 7): −9.85% | percent reduction of facial vitiligo area from Baseline by 3D imaging (facial vitiligo area; 6 mg QD): 15.2% | % Change Facial Vitiligo Area by 3D Imaging at Week 24, Mean (facial vitiligo area; 11 mg QD, N 6): −34.96% | % Change Facial Vitiligo Area by 3D Imaging at Week 24, Median (facial vitiligo area; 11 mg QD, N 6): −37.38% | percent reduction of facial vitiligo area from Baseline by 3D imaging (facial vitiligo area; 11 mg QD): 34.96% | % Change Facial Vitiligo Area by 3D Imaging at Week 24, Mean (facial vitiligo area; 22 mg QD, N 5): −23.00% | % Change Facial Vitiligo Area by 3D Imaging at Week 24, Median (facial vitiligo area; 22 mg QD, N 5): −27.2% | percent reduction of facial vitiligo area from Baseline by 3D imaging (facial vitiligo area; 22 mg QD): 23% | Cherry 3D imaging vitiligo area, % change (facial vitiligo area; [4]): −27.2% | F-VASI, % change (facial vitiligo area; [4]): −24.62% | Cherry 3D imaging vitiligo area, % change (facial vitiligo area; 22 mg QD, one representative subject, Baseline to Week 24, listed as upadacitinib): −27.20% | Cherry 3D imaging vitiligo area, Wk 24 (facial vitiligo area; 22 mg QD, one representative subject, Fitzpatrick Type III, baseline 215.84): 157.13 cm^2 | F-VASI, Wk 24 (facial vitiligo area; 22 mg QD, one representative subject, baseline 1.3): 0.98 | percent change from baseline in vitiligo extent score (VES) by 3D imaging evaluation (facial vitiligo area; 11 and 22 mg versus placebo, preliminary): greater percent change from baseline | Treatment effect size, Cohen's d of 3D Imaging (facial vitiligo area; [5]): 0.50 | Treatment effect size, Cohen's d of F-VASI (facial vitiligo area; [5]): 0.76 | Treatment effect size, Cohen's d of 3D Imaging (facial vitiligo area; [6]): > 0.8 | Treatment effect size, Cohen's d of F-VASI (facial vitiligo area; [6]): 0.13 | Treatment effect size, Cohen's d of 3D Imaging (facial vitiligo area; Placebo (N = 3) vs 11 mg (N = 6), listed as UPA): 1.36 | Treatment effect size, Cohen's d of 3D Imaging (facial vitiligo area; [7]): > 0.8 | Treatment effect size, Cohen's d of F-VASI (facial vitiligo area; [7]): 0.61 | Treatment effect size, Cohen's d of 3D Imaging (facial vitiligo area; Placebo (N = 3) vs 22 mg (N = 5), listed as UPA): 1.02 | solubility ([2]; 50 mM carbonate buffer, 37 °C, pH 9.11, aqueous buffer, thermodynamic from solid): 199 ± 6 µg/mL (≈ 523 µM) | Solubility (in words) ([2]; at low pH): good solubility | VitiQoL LS mean change ([3]; 6 mg): −7.5% | Percent CFB in F-VASI; LSMEAN (SE) ([3]; 6 mg QD oral): −21.96 (5.162) Percent | CFB in VitiQoL Total Score; LSMEAN (SE) ([3]; 6 mg QD, Week 24): −7.5 (2.27) | Percent CFB in T-VASI; LSMEAN (SE) ([3]; 6 mg QD, Week 24): −13.87 (3.332) Percent | T-VASI 50; (%) ([3]; 6 mg QD, Week 24): 6.1% | Δ vs PBO, CFB in VitiQoL Total Score ([3]; 6 mg QD, Week 24): Δ = −1.9; | Δ vs PBO, F-VASI 50 ([3]; 6 mg QD, Week 24): Δ = 6.6; | Δ vs PBO, F-VASI 75 ([3]; 6 mg QD, Week 24): Δ = 6.9; | Δ vs PBO, Percent CFB in F-VASI ([3]; 6 mg QD, Week 24): Δ = −7.60; | Δ vs PBO, Percent CFB in T-VASI ([3]; 6 mg QD, Week 24): Δ = −7.45; | Δ vs PBO, T-VASI 50 ([3]; 6 mg QD, Week 24): Δ = 3.7; | Δ vs PBO, much better or a little better on PaGIC ([3]; 6 mg QD, Week 24): Δ = 14.3% | Δ vs PBO, much better or a little better on PhGIC ([3]; 6 mg QD, Week 24): Δ = 18% | Achieving much better or a little better on PaGIC (PaGIC-V score of 1 or 2), responders n ([3]; 6 mg QD, Week 24, N = 49): 17 n | F-VASI 50; n ([3]; 6 mg QD, Week 24, N = 49): 8 n | T-VASI 50; n ([3]; 6 mg QD, Week 24, N = 49): 3 n | VNS score of 4 or 5, Responders n ([3]; 6 mg QD, Week 24, N = 49): 0 n | F-VASI 75; n ([3]; 6 mg QD, Week 24, N = 49, NRI): 4 n | F-VASI 75; (%) ([3]; 6 mg QD): 8.2% | DLQI LS mean change ([3]; 6 mg QD, Week 24, change from baseline, 43 patients): −1.4% | HADS Anxiety LS mean change [3, 8]: −0.7% | HADS Depression LS mean change [3, 8]: 0.2% | Percent CFB in F-VASI ([3]; 6 mg, Week 52, As Observed, N = 38): −52.7% | Percent CFB in F-VASI ([3]; 6 mg, Week 52, Intent-to-Treat, MMRM/NRI-MI, N = 49): −52.3% | Percent CFB in F-VASI; LSMEAN (SE) ([3]; 11 mg QD oral): −35.63 (5.297) Percent | CFB in VitiQoL Total Score; LSMEAN (SE) ([3]; 11 mg QD, Week 24): −3.7 (2.30) | Percent CFB in T-VASI; LSMEAN (SE) ([3]; 11 mg QD, Week 24): −17.26 (3.414) Percent | T-VASI 50; (%) ([3]; 11 mg QD, Week 24): 6.4% | Δ vs PBO, CFB in VitiQoL Total Score ([3]; 11 mg QD, Week 24): Δ = 1.9; | Δ vs PBO, F-VASI 50 ([3]; 11 mg QD, Week 24): Δ = 29.3; | Δ vs PBO, F-VASI 75 ([3]; 11 mg QD, Week 24): Δ = 17.8; | Δ vs PBO, Percent CFB in F-VASI ([3]; 11 mg QD, Week 24): Δ = −21.27; | Δ vs PBO, Percent CFB in T-VASI ([3]; 11 mg QD, Week 24): Δ = −10.84; | Δ vs PBO, T-VASI 50 ([3]; 11 mg QD, Week 24): Δ = 3.8; | Δ vs PBO, much better or a little better on PaGIC ([3]; 11 mg QD, Week 24): Δ = 38.5% | Δ vs PBO, much better or a little better on PhGIC ([3]; 11 mg QD, Week 24): Δ = 37.8% | Achieving much better or a little better on PaGIC (PaGIC-V score of 1 or 2), responders n ([3]; 11 mg QD, Week 24, N = 47): 26 n | F-VASI 50; n ([3]; 11 mg QD, Week 24, N = 47): 18 n | T-VASI 50; n ([3]; 11 mg QD, Week 24, N = 47): 3 n | VNS score of 4 or 5, Responders n ([3]; 11 mg QD, Week 24, N = 47): 0 n | F-VASI 75; n ([3]; 11 mg QD, Week 24, N = 47, NRI): 9 n | F-VASI 75; (%) ([3]; 11 mg QD): 19.1% | DLQI LS mean change ([3]; 11 mg QD, Week 24, change from baseline, 42 patients): −1.2% | VitiQoL LS mean change ([3]; 11 mg QD, Week 24, change from baseline, 44 patients): −3.7% | HADS Anxiety LS mean change [3, 9]: 0.0% | HADS Depression LS mean change [3, 9]: −0.3% | Percent CFB in F-VASI ([3]; 11 mg, Week 52, As Observed, N = 38): −64.8% | Percent CFB in F-VASI ([3]; 11 mg, Week 52, Intent-to-Treat, MMRM/NRI-MI, N = 47): −62.8% | Percent CFB in F-VASI; LSMEAN (SE) ([3]; 22 mg QD oral): −33.96 (5.793) Percent | Percent CFB in T-VASI; LSMEAN (SE) ([3]; 22 mg QD, Week 24): −20.69 (3.731) Percent | T-VASI 50; (%) ([3]; 22 mg QD, Week 24): 11.6% | VNS score of 4 or 5, Responders (%) ([3]; 22 mg QD, Week 24): (11.6) % | Δ vs PBO, CFB in VitiQoL Total Score ([3]; 22 mg QD, Week 24): Δ = −1.1; | Δ vs PBO, F-VASI 50 ([3]; 22 mg QD, Week 24): Δ = 28.7; | Δ vs PBO, F-VASI 75 ([3]; 22 mg QD, Week 24): Δ = 11.7; | Δ vs PBO, Percent CFB in F-VASI ([3]; 22 mg QD, Week 24): Δ = −19.60; | Δ vs PBO, Percent CFB in T-VASI ([3]; 22 mg QD, Week 24): Δ = −14.27; | Δ vs PBO, T-VASI 50 ([3]; 22 mg QD, Week 24): Δ = 9.1; | Δ vs PBO, much better or a little better on PaGIC ([3]; 22 mg QD, Week 24): Δ = 41.1% | Δ vs PBO, much better or a little better on PhGIC ([3]; 22 mg QD, Week 24): Δ = 32% | Achieving much better or a little better on PaGIC (PaGIC-V score of 1 or 2), responders n ([3]; 22 mg QD, Week 24, N = 43): 26 n | F-VASI 50; n ([3]; 22 mg QD, Week 24, N = 43): 17 n | T-VASI 50; n ([3]; 22 mg QD, Week 24, N = 43): 5 n | VNS score of 4 or 5, Responders n ([3]; 22 mg QD, Week 24, N = 43): 5 n | F-VASI 75; n ([3]; 22 mg QD, Week 24, N = 43, NRI): 6 n | F-VASI 75; (%) ([3]; 22 mg QD): 14.0% | HADS Anxiety LS mean change [3, 10]: −0.3% | HADS Depression LS mean change [3, 10]: −0.1% | VitiQoL LS mean change [3, 10]: −6.6% | DLQI LS mean change ([3]; 22 mg QD, Week 24, change from baseline, 35 patients): −2.2% | Percent CFB in F-VASI ([3]; 22 mg, Week 52, As Observed, N = 29): −60.8% | Percent CFB in F-VASI ([3]; 22 mg, Week 52, Intent-to-Treat, MMRM/NRI-MI, N = 43): −59.2%
